Reference: patent publication US11266715B2, “C3A receptor agonists for use against ischemic brain injury, stroke, traumatic brain injury, spinal cord injury and neurodegenerative disorders” (priority 2016, dated 2022)

Assays:
synapsin I+ puncta = assay: Synapsin I immunostaining of dorsal hippocampus after neonatal HI; assay type: in vivo, mouse; details: between groups or hemispheres
Protocol: Neuronal nuclei (NeuN), growth associated protein 43 (GAP-43), synapsin I (SYN), vesicular glutamate transporter 1 (VGLUT1), Glial Fibrillary Acidic Protein (GFAP) and ionized calcium-binding adapter molecule 1 (Iba-1) were visualized in the cornu ammonis (CA) and dentate gyrus (DG) of the dorsal hippocampus by immunohistochemistry. Briefly, following heat-induced antigen retrieval with 0.01 M citrate buffer (pH 6, 0.05% Tween 20) for 3×5 min, sections were washed 3×5 min with PBS-T (0.05% Tween 20), non-specific protein binding was reduced by incubation with blocking buffer [4% normal donkey serum (NeuN and Iba-1), 1% bovine serum albumin (GAP-43 and SYN), 3% normal goat serum (VGLUT1), 2% bovine serum albumin (GFAP) in PBS-T] for 1 h at room temperature (RT). […]
(§1) NeuN positive cells, GFAP positive relative area, as well as GAP-43, SYN, and VGLUT1 positive puncta were counted by using MetaMorph software (ver. 7.8.6, Molecular Devices, CA, USA) on confocal images obtained with a 20× (NeuN and GFAP) or 63× (GAP-43, SYN, and VGLUT1) objective (Carl Zeiss LSM 700 Laser Scanning Microscope, Jena, Germany). Iba-1 positive cell somata were counted on bright field images obtained with a 20× objective (Nikon Eclipse 80i). […]

NeuN+ cells = assay: NeuN positive cell density in dorsal hippocampus after neonatal HI; assay type: in vivo, mouse
Protocol: Neuronal nuclei (NeuN), growth associated protein 43 (GAP-43), synapsin I (SYN), vesicular glutamate transporter 1 (VGLUT1), Glial Fibrillary Acidic Protein (GFAP) and ionized calcium-binding adapter molecule 1 (Iba-1) were visualized in the cornu ammonis (CA) and dentate gyrus (DG) of the dorsal hippocampus by immunohistochemistry. Briefly, following heat-induced antigen retrieval with 0.01 M citrate buffer (pH 6, 0.05% Tween 20) for 3×5 min, sections were washed 3×5 min with PBS-T (0.05% Tween 20), non-specific protein binding was reduced by incubation with blocking buffer [4% normal donkey serum (NeuN and Iba-1), 1% bovine serum albumin (GAP-43 and SYN), 3% normal goat serum (VGLUT1), 2% bovine serum albumin (GFAP) in PBS-T] for 1 h at room temperature (RT). Tissue was then incubated with the primary antibody [anti-NeuN biotinylated (1:200, MAB 377B, Millipore, Mass., USA), anti-GAP-43 (1:1000, MAB347, Millipore, Mass., USA), anti-SYN (1:150, SC-7379, Santa Cruz, Calif., USA), anti-VGLUT1 (1:500, AB5905, Millipore, Mass., USA), anti-GFAP (1:200, Z0334, Dako, Stockholm, Sweden), anti-Iba-1 (1:500, 019-19741, Wako, Osaka, Japan)] in blocking buffer overnight at 4° C. One slide per staining batch was incubated only with blocking buffer without primary antibody and used as a negative control. Next, sections were washed 3×5 min with PBS-T and incubated with the secondary antibody [rabbit-anti mouse biotinylated Ig (1:200, GAP-43, E0354, Dako, Stockholm, Sweden), donkey-anti goat biotinylated Ig (1:200, SYN, 705065147, Jackson ImmunoResearch Inc., PA, USA), Alexa Fluor 488 goat-anti guinea pig Ig (1:500, VGLUT1, A11073, Molecular Probes, Oregon, USA), Alexa Fluor 488 goat-anti rabbit (1:2000, GFAP, A11034, Molecular Probes, Oregon, USA), donkey-anti rabbit biotinylated (1:500, Iba-1, 711-065-152, Jackson ImmunoResearch Inc., PA, USA), in blocking buffer for 1 h at RT. After washing 3×5 min with PBS-T, sections were incubated with Streptavidin-Cy3 (1:100 (GAP-43, SYN), 1:300 (NeuN), S6402, Sigma-Aldrich, Missouri, USA) in blocking buffer for 1 h at RT. Then, sections were washed 3×5 min with PBS-T, mounted with Pro Long Gold (P36931, Life Technologies, CA, USA) and cover slipped for 24 h before being sealed with nail polish. […]
as §1

Substance: C3a: Purified human C3a peptide (Complement Technologies), C3a receptor agonist, amino acid sequence SEQ ID NO: 1
- density or average area of synapsin I+ puncta in CA1 or dentate gyrus (synapsin I+ puncta): did not find any differences
- neuronal density in CA1 and CA3, ipsilesional vs contralesional hemisphere (NeuN+ cells; both HI groups, p<0.01 and p<0.05): decreased in the ipsilesional hemisphere
- NeuN+ cell density in the DG (NeuN+ cells; data not shown): No effect
- number of NeuN+ cells in injured CA3 vs sham mice (NeuN+ cells; p<0.01): lower compared with sham mice
- number of NeuN+ cells in injured CA1 vs sham mice (NeuN+ cells; p<0.05 for PBS): of PBS but not C3a treated mice was lower compared with sham mice
